Where two headings read alike, the source gives them in different places. Positions of bridges follow the written chain, without caps; N, C: chain ends. Non-standard residues stand in square brackets, D forms with d. Residues, ends and D or L forms follow the SMILES beside them. *: point of attachment. Chlorambucil = O=C(CCCc1ccc(N(CCCl)CCCl)cc1)*; NH(4-Br-phenethyl) = Brc1ccc(CCN*)cc1; BrAc = O=C(CBr)*
How the values were obtained:
BBN receptor [1] = molecular target: T1, BBN receptor (Rattus norvegicus, UniProt P52500); experiment: Inhibition of 125I bombesin binding to rat pancreatic acinar cells; settings: for Kd: inhibition of 125I bombesin binding, IC50 divided by radioligand concentration
T1 sequence (P52500 whole entry): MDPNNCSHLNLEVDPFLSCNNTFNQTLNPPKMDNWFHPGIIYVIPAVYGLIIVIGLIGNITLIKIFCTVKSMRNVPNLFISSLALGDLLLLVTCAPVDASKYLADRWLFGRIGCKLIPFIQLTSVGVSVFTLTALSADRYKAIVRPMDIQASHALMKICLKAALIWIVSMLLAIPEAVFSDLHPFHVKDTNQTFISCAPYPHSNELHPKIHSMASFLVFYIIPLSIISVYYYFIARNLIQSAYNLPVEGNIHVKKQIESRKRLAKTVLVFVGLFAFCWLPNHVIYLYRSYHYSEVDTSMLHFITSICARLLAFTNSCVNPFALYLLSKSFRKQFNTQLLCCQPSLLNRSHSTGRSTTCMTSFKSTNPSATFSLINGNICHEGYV
Protocol: Inhibition of equilibrium binding of ^125 I labeled bombesin to acinar membranes by the compounds was determined. The Kd was determined by dividing IC50 (the concentration of synthetic compound required to inhibit 50% of the specific binding of labelled BBN) by the concentration of radiolabeled peptide.

BBN receptor [2] = molecular target: T2, BBN receptor (Homo sapiens, UniProt P30550); experiment: Cytosolic Ca++ assay in SCLC cell line NCI-H345; type: cell-based; design: key: antagonized (A); had no effect (--) on the ability of 10 nM BBN to; settings: compound 10 μM; 10 nM BBN elevation of cytosolic Ca++
T2 construct: endogenous in cells; host or cells: NCI-H345 (human SCLC)
T2 sequence (P30550 whole entry): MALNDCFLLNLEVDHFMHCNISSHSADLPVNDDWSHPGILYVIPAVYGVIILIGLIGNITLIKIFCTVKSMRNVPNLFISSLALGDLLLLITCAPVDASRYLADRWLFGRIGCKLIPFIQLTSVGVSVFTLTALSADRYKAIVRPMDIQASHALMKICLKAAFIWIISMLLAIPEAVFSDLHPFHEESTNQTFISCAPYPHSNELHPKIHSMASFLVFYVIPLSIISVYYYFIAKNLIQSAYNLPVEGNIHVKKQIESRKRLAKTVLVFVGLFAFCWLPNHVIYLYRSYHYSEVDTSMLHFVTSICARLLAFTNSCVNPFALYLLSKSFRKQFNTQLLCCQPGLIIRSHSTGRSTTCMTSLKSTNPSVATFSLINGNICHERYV
Protocol: SCLC cell line NCI-H345 was cultured for two days in medium containing 10^-8 M hydrocortisone, 5 μg/ml bovine insulin, 10 μg/ml human transferrin, 10^-8 M β-estradiol and 3×10^-8 M Na2 SeO3. The cells were harvested and washed, resuspended in medium containing 20 mM HEPES, pH 7.4, and loaded with 5 μM Fura 2 AM (Calbiochem) for 30 minutes. The cells were centrifuged at 150×g for 10 minutes to remove extracellular dye and resuspended and placed in a spectrofluorometer cell equipped with stirring and 37° C. heating. The emission was read at 510 nm with 340 excitation (Moody et al., Biochem. Biophys. Res. Commun. 147:189 (1987)). The response of compounds at 5 μM was measured initially as a screen and compared to that of 10 nM BBN. The response of varying concentrations of peptide (nM to μM) in the presence of 10 nM BBN was determined.

BBN receptor [3] = molecular target: T2, BBN receptor; experiment: Inhibition of [125I]Tyr4-BBN binding to SCLC NCI-H345 membranes; settings: for inhibition of BBN binding to SCLC membranes (in words): radiolabelled Tyr4-BBN
Protocol: (§1) Acinar cells from rat pancreas bind BBN and secrete amylase when treated with BBN. The ability of potential antagonists to bind to rat pancreatic acinar cells was examined by determining the ability of the compounds to inhibit the binding of radiolabelled BBN. […] Finally, antagonist activity of the compounds was determined by measuring the ability of compounds to prevent the release of amylase from cells in response to BBN. […] This cell line was also used to evaluate biological activities of potential antagonists derived from the structures of BBN and GRP. The binding of synthetic compounds to cellular membranes prepared from NCI-H345 was determined. The ability of potential antagonists to block the BBN-stimulated increase in cytosolic levels of Ca^++ was determined. Compounds showing inhibition were further tested to determine the effect on growth of two human SCLC cell lines in culture.
Potential antagonists were also evaluated for their ability to inhibit the binding of radiolabelled Tyr^4 -BBN to SCLC membranes and for their effects on BBN signal transduction in SCLC cells.

BBN receptor [4] = molecular target: T1, BBN receptor; experiment: Inhibition of bombesin-stimulated amylase release from rat pancreatic acini; type: cell-based; settings: half-maximal inhibition of bombesin-stimulated amylase release from acini; mean ± s.e.m.
Protocol: as §1
The incubation solution contained 1% albumin and the wash solution contained 0.2% albumin. The solution was equilibrated with 100% O2. Dispersed acini were suspended in 20 ml of solution. Samples of 1 ml were incubated in the presence of various concentrations of compounds in the presence of 1 nM bombesin. After the first incubation the samples were washed 4 times with wash solution at 4° C. The acini were then resuspended in fresh incubation buffer and incubated at 37° C. Amylase release was measured by the Phadebas reagent. Amylase secretion during a given incubation was expressed as the percentage of amylase present in the acini at the beginning of that incubation that was released into the extracellular medium.

BBN receptor [5] = molecular target: T1, BBN receptor; experiment: Stimulation of amylase release from rat pancreatic acinar cells by the compound alone (agonist test); type: cell-based
NCI-H720 = experiment: Clonagenic assay, colony formation of NCI-H720; type: cell-based, human; settings: for colony formation: NCI-H720; for colony formation (in words): second SCLC line (NCI-H270 in the text, NCI-H720 in Table 4), 1 μM
Protocol: (§2) On the day of the assay, cells were harvested, centrifuged and suspended in the buffer. The agarose cloning system consisted of 3 ml of 0.5% agarose in SIT medium with 5% fetal bovine serum in six well plates. To a top layer, consisting of 3 ml HITES medium in 0.3% agarose, the peptides at two times concentration and 6×10^4 single viable cells, were added. For each peptide concentration, triplicate wells were plated. After two weeks, 1 ml of 0.1% p-iodo-nitrotetrazolium violet was added, and after 16 hours at 37° C., the plates were screened for colony formation; the number of colonies larger than […] in diameter were counted using a Bausch and Lomb Omnicon image analysis system.

NCI-H345 [6] = experiment: Clonagenic assay, colony formation of NCI-H345; type: cell-based, human; design: key to Growth: significantly reduced (R); had no effect (--) on th; settings: for reversal of colony inhibition by BBN (in words): 1 μM antagonist, 10 nM BBN added, both cell lines; for colony formation (in words): NCI-H345, 1 μM; for colony formation: NCI-H345, antagonist 1 μM plus BBN 10 nM; for Growth: compound 1 μM, clonal growth of a human tumor cell line
Protocol: as §2, with “The effect of 1 to 1000 nM concentration of peptides on growth of NCI-H345 colonies stimulated by 10 nM BBN was measured in the agarose cloning system (Mahoud et al., Cancer Res. 51:1798 (1991); Staley et al., Peptides 12:145-149 (1991)). […] On” for “On”

NCI-H345 [7] = experiment: Clonagenic assay, colony formation of NCI-H345; type: cell-based, human; settings: antagonist 1 μM alone, mean ± S.E. of 3
CCK Receptor = molecular target: T3, CCK Receptor (Rattus norvegicus, UniProt P30551); experiment: Specificity test, CCK-stimulated amylase secretion of rat pancreatic acinar cells after wash; settings: PTC 821 1 μM
T3 sequence (P30551 1-444): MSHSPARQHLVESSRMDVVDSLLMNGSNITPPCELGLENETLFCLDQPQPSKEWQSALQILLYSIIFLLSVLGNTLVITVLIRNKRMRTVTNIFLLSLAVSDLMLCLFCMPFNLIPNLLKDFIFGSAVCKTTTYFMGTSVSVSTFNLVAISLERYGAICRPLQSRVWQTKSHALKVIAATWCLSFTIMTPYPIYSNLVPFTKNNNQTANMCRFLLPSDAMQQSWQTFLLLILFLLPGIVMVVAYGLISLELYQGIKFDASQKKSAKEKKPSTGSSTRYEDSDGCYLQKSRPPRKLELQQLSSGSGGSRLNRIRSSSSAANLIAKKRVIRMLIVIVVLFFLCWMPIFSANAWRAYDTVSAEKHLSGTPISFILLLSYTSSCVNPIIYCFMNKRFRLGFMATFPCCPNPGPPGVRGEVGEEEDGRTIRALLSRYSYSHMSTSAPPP
Protocol: (§3) Dispersed acinar cells from rat pancreas were prepared as indicated above.

BBN receptor [8] = molecular target: T1, BBN receptor; type: cell-based; settings: PTC 821 1 μM
Protocol: as §3

bombesin receptor = settings: inhibits growth with moderate potency; literature value; cited from earlier work
[9] = 50% inhibition of specific [125I]Tyr4-BBN binding, NCI-H345, read-out: IC50
[10] = antagonist 1 μM alone, mean ± S.E. of 3

Compound	Kd (BBN receptor [1])	Ca++ effect (BBN receptor [2])	IC50 (BBN receptor [3]; [9])	IC50 (BBN receptor [4])	EC50 (BBN receptor [5])	Growth (NCI-H345 [6])	IC50 (BBN receptor [3])	other results
CC(=O)N[C@@H]1CCCCNC(=O)[C@H](CC(C)C)NC(=O)[C@H](Cc2c[nH]cn2)NC(=O)[C@H](C)NC(=O)[C@H](C(C)C)NC(=O)[C@H](C)NC(=O)[C@H](Cc2c[nH]c3ccccc23)NC(=O)[C@H](CCC(N)=O)NC(=O)[C@H](CC(N)=O)NC1=O [PTC 805] (Ac-[dK]NQWAVAHL; lactam 1-C)	> 3000 nM	--	> 10000 nM	> 3000 nM	> 3000 nM			
CC(C)C[C@@H]1NC(=O)[C@H](Cc2c[nH]cn2)NC(=O)[C@@H](C)NC(=O)[C@H](C(C)C)NC(=O)[C@H](C)NC(=O)[C@H](Cc2c[nH]c3ccccc23)NC(=O)[C@H](CCC(N)=O)NC(=O)[C@H](CC(N)=O)NC(=O)[C@H](Nc2ccc([N+](=O)[O-])cc2[N+](=O)[O-])CCCCNC1=O [PTC 809]	> 3000 nM	--	> 10000 nM	> 3000 nM	> 3000 nM			
CCOC(=O)[C@H](CC(C)C)NC(=O)[C@H](Cc1c[nH]cn1)NC(=O)[C@@H](C)NC(=O)[C@@H](NC(=O)[C@H](C)NC(=O)[C@H](Cc1c[nH]c2ccccc12)NC(=O)[C@H](CCC(N)=O)NC(=O)[C@H](CC(N)=O)NC(=O)CBr)C(C)C [PTC 816] (BrAc-NQWAV[dA]HL-OEt)		A				R	55 nM	colony formation (NCI-H720; [10]): 37 ± 6 Colony per mm^2; colony formation (NCI-H720; antagonist 1 μM plus BBN 10 nM): 66 ± 8 Colony per mm^2; colony formation (in words) (NCI-H720): reduce the amount of colony formation; reversal of colony inhibition by BBN (in words) (NCI-H345 [6]): can be reversed; colony formation (in words) (NCI-H345 [6]): reduce the amount of colony formation; colony formation (NCI-H345 [6]): 52 ± 3 Colony per mm^2; inhibition of BBN binding to SCLC membranes (in words) (BBN receptor [3]): potent inhibitors of BBN binding; colony formation (NCI-H345 [7]): 27 ± 4 Colony per mm^2
CCOC(=O)[C@H](CC(C)C)NC(=O)[C@H](Cc1c[nH]cn1)NC(=O)[C@@H](C)NC(=O)[C@@H](NC(=O)[C@H](C)NC(=O)[C@H](Cc1c[nH]c2ccccc12)NC(=O)[C@H](Cc1c[nH]cn1)NC(C)=O)C(C)C [PTC 818] (Ac-HWAV[dA]HL-OEt)	8.1 ± 1.8 nM	A	25 nM	4.9 ± 0.1 nM	> 3000 nM	R		binding to rat pancreatic acinar cells (in words) (BBN receptor [1]; inhibition of radiolabelled BBN binding): did bind to the cells; colony formation (NCI-H720; [10]): 36 ± 4 Colony per mm^2; colony formation (NCI-H720; antagonist 1 μM plus BBN 10 nM): 62 ± 7 Colony per mm^2; colony formation (in words) (NCI-H720): reduce the amount of colony formation; reversal of colony inhibition by BBN (in words) (NCI-H345 [6]): can be reversed; colony formation (in words) (NCI-H345 [6]): reduce the amount of colony formation; colony formation (NCI-H345 [6]): 57 ± 6 Colony per mm^2; inhibition of BBN binding to SCLC membranes (in words) (BBN receptor [3]): potent inhibitors of BBN binding; colony formation (NCI-H345 [7]): 20 ± 5 Colony per mm^2
CC(=O)N[C@@H](Cc1c[nH]cn1)C(=O)N[C@@H](Cc1c[nH]c2ccccc12)C(=O)N[C@@H](C)C(=O)N[C@H](C(=O)N[C@H](C)C(=O)N[C@@H](Cc1c[nH]cn1)C(=O)NCCc1ccc(Br)cc1)C(C)C [PTC 820] (Ac-HWAV[dA]H-{NH(4-Br-phenethyl)})	> 3000 nM	--		> 3000 nM	> 3000 nM	--	> 10000 nM	
CCOC(=O)[C@H](CC(C)C)NC(=O)[C@H](Cc1c[nH]cn1)NC(=O)[C@@H](C)NC(=O)[C@@H](NC(=O)[C@H](C)NC(=O)[C@H](Cc1c[nH]c2ccccc12)NC(=O)[C@H](Cc1c[nH]cn1)NC(=O)CCCc1ccc(N(CCCl)CCCl)cc1)C(C)C [PTC 821] (Chlorambucil-HWAV[dA]HL-OEt)	3.2 ± 0.5 nM			6.3 ± 0.9 nM	> 3000 nM		8 nM	Percent CCK Receptor Activity Recovered (CCK Receptor; 1 Min post-wash): 107%; Percent CCK Receptor Activity Recovered (CCK Receptor; 30 Min post-wash): 115%; Percent CCK Receptor Activity Recovered (CCK Receptor; 60 Min post-wash): 89%; Percent BBN Receptor Activity Recovered (BBN receptor [8]; 1 Min post-wash): 5%; Percent BBN Receptor Activity Recovered (BBN receptor [8]; 30 Min post-wash): 18%; Percent BBN Receptor Activity Recovered (BBN receptor [8]; 60 Min post-wash): 25%; changes in the appearance of the cells indicative of toxicity (BBN receptor [8]; rat pancreatic acinar cells): no changes in the appearance of the cells
[Psi^13,14, Leu^14 ]BBN								Ki (bombesin receptor): 30 nM
